Experimental data reported in publication PMC12892976, “Alkylation-based optimization of antifungal FPPS inhibitors yields a potent, broad-spectrum lipophilic zoledronate derivative” (mBio, 2025).
≈ marks a conversion by molar mass, not a printed value.

Tests used:
Nannizzia nana = assay: checkerboard drug interaction (FICI, MICc); type: cell-based;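 further: simplified diagonal checkerboard screen pairing antifungals with FPPS inhibitors, FICI calculated under the Loewe additivity model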
Protocol: (§2) Drug interactions between antifungals and FPPS inhibitors were investigated using a simplified checkerboard diagonal screening method ([45]). […] FICIs were determined according to the Loewe additivity model ([17]).

Trichophyton soudanense [1] = assay: checkerboard drug interaction (FICI, MICc); type: cell-based;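 further: simplified diagonal checkerboard screen pairing antifungals with FPPS inhibitors, FICI computed under the Loewe additivity model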
Protocol: as §2

Trichophyton soudanense [2] = assay: MIC broth microdilution (CLSI); conditions: Trichophyton soudanense R-167
Protocol: (§3) Antifungal susceptibility was determined by broth microdilution according to the CLSI guidelines described in M27-Ed4 ([16]).

Fusarium oxysporum [3] = assay: MIC broth microdilution (CLSI); type: cell-based; conditions: Fusarium oxysporum 07-200-3012
Protocol: as §3

Candida tropicalis [4] = assay: MIC broth microdilution (CLSI); type: cell-based; conditions: Candida tropicalis M230640
Protocol: as §3

Fusarium oxysporum [5] = assay: checkerboard drug interaction (FICI, MICc); type: cell-based;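 further: simplified diagonal checkerboard screen pairing antifungals with FPPS inhibitors, FICI calculated under the Loewe additivity model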
Protocol: as §2

Aspergillus niger = assay: checkerboard drug interaction (FICI, MICc); type: cell-based;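 further: simplified diagonal checkerboard screen pairing antifungals with FPPS inhibitors, FICI calculated under the Loewe additivity model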
Protocol: as §2

Candida parapsilosis = assay: checkerboard drug interaction (FICI, MICc); type: cell-based;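 further: simplified diagonal checkerboard screen pairing antifungals with FPPS inhibitors, with FICI computed under the Loewe additivity model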
Protocol: as §2

Trichophyton tonsurans = assay: MIC broth microdilution (CLSI); conditions: Trichophyton tonsurans R-168
Protocol: as §3

[6] = test system: Cryptococcus bacillisporus; assay: MIC broth microdilution (CLSI); type: cell-based; conditions: Cryptococcus bacillisporus NIH179
Protocol: as §3

Cryptococcus tetragattii = assay: MIC broth microdilution (CLSI); type: cell-based; conditions: Cryptococcus tetragattii WM779
Protocol: as §3

Aspergillus felis = assay: checkerboard drug interaction (FICI, MICc); type: cell-based;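 further: simplified diagonal checkerboard screen pairing antifungals with FPPS inhibitors, FICI calculated under the Loewe additivity model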
Protocol: as §2

Mucor circinelloides = assay: checkerboard drug interaction (FICI, MICc); type: cell-based
Protocol: as §2

Aspergillus terreus = assay: checkerboard drug interaction (FICI, MICc); type: cell-based;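 further: simplified diagonal checkerboard screen pairing antifungals with FPPS inhibitors, FICI derived by the Loewe additivity model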
Protocol: as §2

[7] = test system: Aspergillus frankstonensis; assay: MIC broth microdilution (CLSI); type: cell-based; conditions: Aspergillus frankstonensis DTO 341-F3
Protocol: as §3

[8] = test system: Cryptococcus deneoformans; assay: MIC broth microdilution (CLSI); type: cell-based; conditions: Cryptococcus deneoformans JEC21
Protocol: as §3

Candida dubliniensis = assay: checkerboard drug interaction (FICI, MICc); type: cell-based
Protocol: as §2

Lomentospora prolificans = assay: MIC broth microdilution (CLSI); type: cell-based; conditions: Lomentospora prolificans 80-16-101-2445
Protocol: as §3

Candida tropicalis [9] = assay: checkerboard drug interaction (FICI, MICc); type: cell-based;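 further: simplified diagonal checkerboard screen of antifungal plus FPPS inhibitor combinations, with FICI computed by the Loewe additivity model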
Protocol: as §2

Candida auris = assay: checkerboard drug interaction (FICI, MICc); type: cell-based;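 further: simplified diagonal checkerboard screen pairing antifungals with FPPS inhibitors, with FICI computed under the Loewe additivity model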
Protocol: as §2

Epidermophyton floccosum = assay: MIC broth microdilution (CLSI); type: cell-based; conditions: Epidermophyon floccosum R-113
Protocol: as §3

[10] = test system: Aspergillus frankstonensis; assay: checkerboard drug interaction (FICI, MICc);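 further: simplified diagonal checkerboard screen pairing antifungals with FPPS inhibitors, FICI calculated using the Loewe additivity model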
Protocol: as §2

[11] = test system: Aspergillus flavus biofilms; assay: biofilm XTT reduction assay (SIC80, SFICI); type: cell-based
Text: (§1) […]. […] […].

[12] = test system: Aspergillus fumigatus biofilms; assay: biofilm XTT reduction assay (SIC80, SFICI); type: cell-based
Text: as §1

[13] = test system: Candida glabrata biofilms; assay: biofilm XTT reduction assay (SIC80, SFICI); type: cell-based
Text: as §1

[14] = test system: Saccharomyces cerevisiae biofilms; assay: biofilm XTT reduction assay (SIC80, SFICI); type: cell-based; conditions: FLC:10-ZOL combination, Saccharomyces cerevisiae
Protocol: (§4) Biofilms of Cryptococcus were seeded in DMEM, and all other species were seeded in RPMI-1640.

[15] = test system: Trichophyton rubrum biofilms; assay: biofilm XTT reduction assay (SIC80, SFICI); type: cell-based; conditions: biofilm, agent alone; Trichophyton rubrum 213
Protocol: as §4

[16] = test system: Candida albicans biofilms; assay: biofilm XTT reduction assay (SIC80, SFICI); conditions: agent alone, Candida albicans SC5314
Protocol: as §4

Nc1nc(=O)[nH]cc1F [5FC, 5-flucytosine]
antifungal MICc (Nannizzia nana; in combination with 10-ZOL): 32 | antifungal MICc (Nannizzia nana; in combination with ZOL): 64 | antifungal MICc (Trichophyton soudanense [1]; in combination with 10-ZOL): 64 | antifungal MICc (Trichophyton soudanense [1]; in combination with ZOL): 64 | MIC / MEC (Trichophyton soudanense [2]): 64 mg/L (≈ 496 µM) | MIC / MEC (Fusarium oxysporum [3]): >64 mg/L | MIC / MEC (Candida tropicalis [4]): 0.5 mg/L (≈ 3.87 µM) | antifungal MICc (Fusarium oxysporum [5]; in combination with 10-ZOL): 512 | antifungal MICc (Fusarium oxysporum [5]; in combination with ZOL): 512 | antifungal MICc (Aspergillus niger; in combination with 10-ZOL): 512 | antifungal MICc (Aspergillus niger; in combination with ZOL): 256 | antifungal MICc (Candida parapsilosis; in combination with 10-ZOL): 0.125 | antifungal MICc (Candida parapsilosis; in combination with ZOL): 0.25 | MIC / MEC (Trichophyton tonsurans): 64 mg/L (≈ 496 µM) | MIC / MEC [6]: 4 mg/L (≈ 31 µM) | MIC / MEC (Cryptococcus tetragattii): 4 mg/L (≈ 31 µM) | antifungal MICc (Aspergillus felis; in combination with 10-ZOL): 256 | antifungal MICc (Aspergillus felis; in combination with ZOL): 64 | antifungal MICc (Mucor circinelloides; in combination with 10-ZOL): 512 | antifungal MICc (Mucor circinelloides; in combination with ZOL): 512 | antifungal MICc (Aspergillus terreus; in combination with 10-ZOL): 64 | antifungal MICc (Aspergillus terreus; in combination with ZOL): 32 | MIC / MEC [7]: >64 mg/L | MIC / MEC [8]: 2 mg/L (≈ 15.5 µM) | antifungal MICc (Candida dubliniensis; in combination with 10-ZOL): 0.125 | antifungal MICc (Candida dubliniensis; in combination with ZOL): 0.125 | MIC / MEC (Lomentospora prolificans): >64 mg/L | antifungal MICc (Candida tropicalis [9]; in combination with 10-ZOL): 0.5 | antifungal MICc (Candida tropicalis [9]; in combination with ZOL): 0.125 | antifungal MICc (Candida auris; in combination with 10-ZOL): 2 | antifungal MICc (Candida auris; in combination with ZOL): 1 | MIC / MEC (Epidermophyton floccosum): 64 mg/L (≈ 496 µM) | antifungal MICc ([10]; in combination with 10-ZOL): 256 | antifungal MICc ([10]; in combination with ZOL): 256

C[C@@H]1[C@H](O)[C@@H](C)/C=C/C=C/C=C/C=C/C=C/C=C/C=C/[C@H](O[C@@H]2O[C@H](C)[C@@H](O)[C@H](N)[C@@H]2O)C[C@@H]2O[C@](O)(C[C@@H](O)C[C@@H](O)[C@H](O)CC[C@@H](O)C[C@@H](O)CC(=O)O[C@H]1C)C[C@H](O)[C@H]2C(=O)O [AMB, amphotericin B]
antifungal MICc (Nannizzia nana; in combination with 10-ZOL): 1 | antifungal MICc (Nannizzia nana; in combination with ZOL): 0.25 | antifungal MICc (Trichophyton soudanense [1]; in combination with 10-ZOL): 0.25 | antifungal MICc (Trichophyton soudanense [1]; in combination with ZOL): 0.5 | MIC / MEC (Trichophyton soudanense [2]): 0.5 mg/L (≈ 0.541 µM) | MIC / MEC (Fusarium oxysporum [3]): 1 mg/L (≈ 1.08 µM) | MIC / MEC (Candida tropicalis [4]): 1 mg/L (≈ 1.08 µM) | antifungal MICc (Fusarium oxysporum [5]; in combination with 10-ZOL): 1 | antifungal MICc (Fusarium oxysporum [5]; in combination with ZOL): 0.5 | antifungal MICc (Aspergillus niger; in combination with 10-ZOL): 0.25 | antifungal MICc (Aspergillus niger; in combination with ZOL): 0.125 | antifungal MICc (Candida parapsilosis; in combination with 10-ZOL): 0.5 | antifungal MICc (Candida parapsilosis; in combination with ZOL): 0.5 | MIC / MEC (Trichophyton tonsurans): 0.13 mg/L (≈ 0.141 µM) | MIC / MEC [6]: 0.25 mg/L (≈ 0.271 µM) | MIC / MEC (Cryptococcus tetragattii): 0.5 mg/L (≈ 0.541 µM) | antifungal MICc (Aspergillus felis; in combination with 10-ZOL): 2 | antifungal MICc (Aspergillus felis; in combination with ZOL): 8 | antifungal MICc (Mucor circinelloides; in combination with 10-ZOL): 0.25 | antifungal MICc (Mucor circinelloides; in combination with ZOL): 0.25 | antifungal MICc (Aspergillus terreus; in combination with 10-ZOL): 0.25 | antifungal MICc (Aspergillus terreus; in combination with ZOL): 0.5 | MIC / MEC [7]: 2 mg/L (≈ 2.16 µM) | MIC / MEC [8]: 0.25 mg/L (≈ 0.271 µM) | antifungal MICc (Candida dubliniensis; in combination with 10-ZOL): 0.25 | antifungal MICc (Candida dubliniensis; in combination with ZOL): 0.25 | MIC / MEC (Lomentospora prolificans): 16 mg/L (≈ 17.3 µM) | antifungal MICc (Candida tropicalis [9]; in combination with 10-ZOL): 0.5 | antifungal MICc (Candida tropicalis [9]; in combination with ZOL): 1 | antifungal MICc (Candida auris; in combination with 10-ZOL): 1 | antifungal MICc (Candida auris; in combination with ZOL): 2 | MIC / MEC (Epidermophyton floccosum): 0.5 mg/L (≈ 0.541 µM) | antifungal MICc ([10]; in combination with 10-ZOL): 1 | antifungal MICc ([10]; in combination with ZOL): 2

CC[C@H](C)C[C@H](C)CCCCCCCCC(=O)N[C@H]1C[C@@H](O)[C@@H](NCCN)NC(=O)[C@@H]2[C@@H](O)CCN2C(=O)[C@H]([C@H](O)CCN)NC(=O)[C@H]([C@H](O)[C@@H](O)c2ccc(O)cc2)NC(=O)[C@@H]2C[C@@H](O)CN2C(=O)[C@H]([C@@H](C)O)NC1=O [CAS, caspofungin]
antifungal MICc (Nannizzia nana; in combination with 10-ZOL): 0.25 | antifungal MICc (Nannizzia nana; in combination with ZOL): 0.033 | antifungal MICc (Trichophyton soudanense [1]; in combination with 10-ZOL): 0.5 | antifungal MICc (Trichophyton soudanense [1]; in combination with ZOL): 1 | MIC / MEC (Trichophyton soudanense [2]): 0.5 mg/L (≈ 0.457 µM) | MIC / MEC (Fusarium oxysporum [3]): >16 mg/L | MIC / MEC (Candida tropicalis [4]): 0.06 mg/L (≈ 0.0549 µM) | antifungal MICc (Fusarium oxysporum [5]; in combination with 10-ZOL): 128 | antifungal MICc (Fusarium oxysporum [5]; in combination with ZOL): 64 | antifungal MICc (Aspergillus niger; in combination with 10-ZOL): 2 | antifungal MICc (Aspergillus niger; in combination with ZOL): 4 | antifungal MICc (Candida parapsilosis; in combination with 10-ZOL): 0.25 | antifungal MICc (Candida parapsilosis; in combination with ZOL): 0.5 | MIC / MEC (Trichophyton tonsurans): 0.5 mg/L (≈ 0.457 µM) | MIC / MEC [6]: 8 mg/L (≈ 7.32 µM) | MIC / MEC (Cryptococcus tetragattii): 8 mg/L (≈ 7.32 µM) | antifungal MICc (Aspergillus felis; in combination with 10-ZOL): 0.5 | antifungal MICc (Aspergillus felis; in combination with ZOL): 0.5 | antifungal MICc (Mucor circinelloides; in combination with 10-ZOL): 128 | antifungal MICc (Mucor circinelloides; in combination with ZOL): 16 | antifungal MICc (Aspergillus terreus; in combination with 10-ZOL): 2 | antifungal MICc (Aspergillus terreus; in combination with ZOL): 2 | MIC / MEC [7]: 0.13 mg/L (≈ 0.119 µM) | MIC / MEC [8]: 16 mg/L (≈ 14.6 µM) | antifungal MICc (Candida dubliniensis; in combination with 10-ZOL): 0.063 | antifungal MICc (Candida dubliniensis; in combination with ZOL): 0.01 | MIC / MEC (Lomentospora prolificans): >16 mg/L | antifungal MICc (Candida tropicalis [9]; in combination with 10-ZOL): 0.25 | antifungal MICc (Candida tropicalis [9]; in combination with ZOL): 0.02 | antifungal MICc (Candida auris; in combination with 10-ZOL): 0.5 | antifungal MICc (Candida auris; in combination with ZOL): 4 | MIC / MEC (Epidermophyton floccosum): 0.13 mg/L (≈ 0.119 µM) | antifungal MICc ([10]; in combination with 10-ZOL): 0.125 | antifungal MICc ([10]; in combination with ZOL): 0.5

OC(Cn1cncn1)(Cn1cncn1)c1ccc(F)cc1F [FLC, fluconazole]
antifungal MICc (Nannizzia nana; in combination with 10-ZOL): 32 | antifungal MICc (Nannizzia nana; in combination with ZOL): 8 | antifungal MICc (Trichophyton soudanense [1]; in combination with 10-ZOL): 4 | antifungal MICc (Trichophyton soudanense [1]; in combination with ZOL): 64 | MIC / MEC (Candida tropicalis [4]): 16 mg/L (≈ 52.2 µM) | antifungal MICc (Fusarium oxysporum [5]; in combination with ZOL): 64 | antifungal MICc (Aspergillus niger; in combination with 10-ZOL): 64 | antifungal MICc (Candida parapsilosis; in combination with 10-ZOL): 1 | antifungal MICc (Candida parapsilosis; in combination with ZOL): 0.25 | SICc ([11]; FLC:10-ZOL combination, Aspergillus flavus): 512 µg/mL | SIC80 ([11]; agent alone, Aspergillus flavus ATCC 204304): 1,024 µg/mL | SICc ([12]; FLC:10-ZOL combination, Aspergillus fumigatus): 512 µg/mL | SIC80 ([12]; agent alone, Aspergillus fumigatus ATCC 204305): >2,048 µg/mL | SICc ([13]; FLC:10-ZOL combination, Candida glabrata): 512 µg/mL | SIC80 ([13]; agent alone, Candida glabrata CBS138): >2,048 µg/mL | MIC / MEC [6]: 1 mg/L (≈ 3.27 µM) | MIC / MEC (Cryptococcus tetragattii): 4 mg/L (≈ 13.1 µM) | antifungal MICc (Aspergillus felis; in combination with 10-ZOL): 4 | antifungal MICc (Mucor circinelloides; in combination with 10-ZOL): 32 | antifungal MICc (Mucor circinelloides; in combination with ZOL): 32 | antifungal MICc (Aspergillus terreus; in combination with 10-ZOL): 2 | antifungal MICc (Aspergillus terreus; in combination with ZOL): 8 | SICc [14]: 64 µg/mL | SIC80 [15]: 2,048 µg/mL | MIC / MEC [8]: 0.5 mg/L (≈ 1.63 µM) | SIC80 [16]: 512 µg/mL | antifungal MICc (Candida dubliniensis; in combination with 10-ZOL): 0.125 | antifungal MICc (Candida dubliniensis; in combination with ZOL): 0.03125 | antifungal MICc (Candida tropicalis [9]; in combination with 10-ZOL): 1 | antifungal MICc (Candida tropicalis [9]; in combination with ZOL): 2 | antifungal MICc (Candida auris; in combination with 10-ZOL): 64 | antifungal MICc (Candida auris; in combination with ZOL): 32 | antifungal MICc ([10]; in combination with 10-ZOL): 64
